Assay results: US20230002368A1, “USE OF COMPOUNDS FOR THE PREVENTION AND/OR TREATMENT OF ANKYLOSING SPONDYLITIS, AND CORRESPONDING COMPOSITIONS” (NUVAMID SA, priority 2019, published 2023)

Columns and labels:
[1] = Weight and tolerance of treated TgA86 mice; type: in vivo; conditions: male TgA86 mice, NMN 185 mg/kg intraperitoneally, 10 weeks
Protocol: (§1) The efficacy of the use of NMN (compound IE) according to the invention was evaluated in 3-week-old TgA86 mice as a model for ankylosing spondylitis. TgA86 mice develop peripheral and axial AS with an incidence of 100%. In these mice, the peripheral form is manifested by joint welling and paw deformation, whilst the axial form is clinically characterised by curved tails and pelvic ankylosis.
(§2) In brief, male TgA86 mice were divided into two groups of 10 mice each: (i) a control group, in which the mice were treated with vehicle, i.e. a 0.9% NaCl solution (10 mL/kg), marked ‘Vehicle’; […] a group of mice treated with NMN (185 mg/kg), marked ‘NMN’. The solutions were injected intraperitoneally.
The mice were treated for 10 weeks under the conditions set forth supra. The joint score, tail score, and weight of the mice were measured every week. The joint score was determined in accordance with table 3 infra: […]

[2] = system: TgA86 mice as a model for ankylosing spondylitis; test: TgA86 mouse model of ankylosing spondylitis: joint score and tail score; type: in vivo; conditions: male TgA86 mice, NMN 185 mg/kg intraperitoneally
Protocol: as §1, §2
The mice were treated for 10 weeks under the conditions set forth supra. The joint score, tail score, and weight of the mice were measured every week. The joint score was determined in accordance with table 3 infra:
The tail score is an indicator that allows for an evaluation of the axial form of AS and pelvic ankylosis (see https://www.biomedcode.com/wp-content/uploads/2019/07/TgA86-white-paper.pdf). The tail score was determined in accordance with table 4 infra: […]

For `NC(=O)c1ccc[n+]([C@@H]2O[C@H](COP(=O)([O-])O)[C@@H](O)[C@H]2O)c1` [NMN, nicotinamide mononucleotide], the “tolerance / toxicity in the animals” value [1] was “well tolerated by the mice and does not cause any distress or toxicity in the animals”, the “development of the average weight of mice” value ([1]; measured every week, vs vehicle (FIG. 1)) was “follows a similar course of development to that of the control group” and the “average joint score (peripheral AS)” value ([2]; 10 weeks, vs vehicle control group (FIG. 2)) was “reduction in the joint score of the mice compared to the control group”. For the same compound, the “average tail score (axial AS, pelvic ankylosis)” value ([2]; 10 weeks, vs vehicle control group (FIG. 3)) was “reduces the tail score in the mice treated compared to the control group”, the “significance of the joint score reduction over time” value ([2]; T-test vs vehicle (FIG. 2)) was “particularly significant starting in the 5th week of treatment” and the “significance of the tail score reduction over time” value ([2]; T-test vs vehicle (FIG. 3)) was “significant starting in the second week of treatment”.
